In ChEMBL document CHEMBL1201862, “PubChem BioAssay data set” (2004) one finds IC50 and EC50 data, which are given here for five molecules.

The source made the active and inactive calls.

In test [1] the target is T1, Leucine aminopeptidase (Plasmodium falciparum 3D7, UniProt Q8IL11).
T1 sequence (Q8IL11 whole entry): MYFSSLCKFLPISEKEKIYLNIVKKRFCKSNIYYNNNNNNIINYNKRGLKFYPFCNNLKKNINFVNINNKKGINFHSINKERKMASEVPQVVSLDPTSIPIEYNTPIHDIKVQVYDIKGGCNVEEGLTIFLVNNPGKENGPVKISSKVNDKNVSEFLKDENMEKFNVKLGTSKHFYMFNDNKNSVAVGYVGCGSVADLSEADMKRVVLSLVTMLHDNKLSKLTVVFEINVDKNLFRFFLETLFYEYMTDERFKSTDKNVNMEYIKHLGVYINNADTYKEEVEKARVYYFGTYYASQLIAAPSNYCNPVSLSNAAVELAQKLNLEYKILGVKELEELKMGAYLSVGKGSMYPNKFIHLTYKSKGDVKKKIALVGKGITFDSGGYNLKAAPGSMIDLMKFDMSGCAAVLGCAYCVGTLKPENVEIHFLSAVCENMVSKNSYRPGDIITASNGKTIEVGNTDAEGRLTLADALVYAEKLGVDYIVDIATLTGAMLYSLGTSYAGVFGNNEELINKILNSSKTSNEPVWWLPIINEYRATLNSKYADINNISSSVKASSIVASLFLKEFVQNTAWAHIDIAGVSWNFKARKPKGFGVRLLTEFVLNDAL
The test can be described thus: P. falciparum M17LAP inhibitors, primary screen, biochemical, fluorogenic H-Leu-NHMec substrate, 1536-well (AID 1619). In kind it is functional.

Test [2] concerns the target Peroxisome proliferator-activated receptor gamma/Nuclear receptor coactivator 3 (Homo sapiens, UniProt P37231). The test can be described thus: TR-FRET dose response biochemical High Throughput Screening assay for agonists of the steroid receptor coactivator 3 (SRC-3) recruitment by the peroxisome proliferator-activated receptor gamma (PPAR gamma): non-selective agonists. [Related pubchem assays: 1301 (Confirmation screen.), 1048 (Primary screen.)]. Type of test: functional.

Test [3] has as its target Peroxisome proliferator-activated receptor gamma/Nuclear receptor coactivator 1 (Homo sapiens, UniProt P37231). Nature of the test: TR-FRET dose response biochemical High Throughput Screening assay for agonists of the steroid receptor coactivator 1 (SRC-1) recruitment by the peroxisome proliferator-activated receptor gamma (PPAR gamma): non-selective agonists. [Related pubchem assays (depositor defined):AID1300, AID1808, AID504735, AID631]. Type of test: protein assay.

Test [4] addresses Peroxisome proliferator-activated receptor gamma/Nuclear receptor coactivator 2 (Homo sapiens, UniProt P37231). The test can be described thus: TR-FRET dose response biochemical High Throughput Screening assay for agonists of the steroid receptor coactivator 2 (SRC-2) recruitment by the peroxisome proliferator-activated receptor gamma (PPAR gamma): non-selective agonists. [Related pubchem assays: 1297, 1032 ]. In kind it is functional. For orientation: In TR-FRET formats the signal depends on donor and acceptor labels being close together.

Test [5] deals with T2, Delta-type opioid receptor (Homo sapiens, UniProt P41143). The test can be described thus: HTS Image-Based Screen for Antagonists of the DOR Receptor. [Related pubchem assays (depositor defined):AID1777, AID1785, AID1786, AID2133]. Type of test: functional.
T2 sequence (P41143 whole entry): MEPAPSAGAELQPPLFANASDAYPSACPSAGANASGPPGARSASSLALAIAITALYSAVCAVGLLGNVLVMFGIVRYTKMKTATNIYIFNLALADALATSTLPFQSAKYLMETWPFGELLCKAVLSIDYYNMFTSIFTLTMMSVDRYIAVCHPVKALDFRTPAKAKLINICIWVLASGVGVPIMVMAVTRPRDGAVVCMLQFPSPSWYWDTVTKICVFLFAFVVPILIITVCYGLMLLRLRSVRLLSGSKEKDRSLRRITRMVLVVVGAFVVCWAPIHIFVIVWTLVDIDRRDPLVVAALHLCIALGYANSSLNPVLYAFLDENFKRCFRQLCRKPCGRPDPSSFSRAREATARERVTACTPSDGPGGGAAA
Test [6] deals with T3, Kappa-type opioid receptor (Homo sapiens, UniProt P41145). Type of test: functional.
T3 sequence (P41145 whole entry): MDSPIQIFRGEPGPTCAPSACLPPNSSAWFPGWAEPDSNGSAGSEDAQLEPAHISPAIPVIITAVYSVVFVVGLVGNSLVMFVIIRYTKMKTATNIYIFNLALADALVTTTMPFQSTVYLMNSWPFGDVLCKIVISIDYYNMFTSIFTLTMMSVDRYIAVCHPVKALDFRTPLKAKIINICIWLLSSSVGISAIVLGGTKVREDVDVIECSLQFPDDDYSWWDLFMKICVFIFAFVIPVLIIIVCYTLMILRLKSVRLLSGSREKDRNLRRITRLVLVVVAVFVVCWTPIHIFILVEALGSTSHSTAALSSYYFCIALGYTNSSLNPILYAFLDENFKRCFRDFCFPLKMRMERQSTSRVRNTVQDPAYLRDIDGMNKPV
The target in test [7] is Mu-type opioid receptor (Homo sapiens, UniProt P35372). The test can be described thus: HTS Image-Based Screen for Agonists of the MOR Receptor. [Related pubchem assays (depositor defined):AID1777, AID1785, AID1786, AID2133]. Type of test: functional.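 Also: imaging of beta-arrestin GFP recruitment into spots after receptor activation.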
Mu-type opioid receptor, sequence (P35372 whole entry): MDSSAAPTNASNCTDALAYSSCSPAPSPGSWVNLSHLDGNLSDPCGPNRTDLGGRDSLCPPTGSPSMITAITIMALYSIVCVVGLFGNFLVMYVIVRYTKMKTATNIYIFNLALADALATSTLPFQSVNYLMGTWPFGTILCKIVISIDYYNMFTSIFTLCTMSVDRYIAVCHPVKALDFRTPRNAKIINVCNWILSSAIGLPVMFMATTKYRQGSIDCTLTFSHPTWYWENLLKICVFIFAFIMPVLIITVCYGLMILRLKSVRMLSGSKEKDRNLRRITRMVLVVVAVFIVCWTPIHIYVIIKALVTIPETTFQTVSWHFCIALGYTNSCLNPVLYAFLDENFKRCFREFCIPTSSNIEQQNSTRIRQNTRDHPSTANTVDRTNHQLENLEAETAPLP
Test [8] deals with T2, Delta-type opioid receptor. Nature of the test: HTS Image-Based Screen for Agonists of the DOR Receptor. [Related pubchem assays (depositor defined):AID1777, AID1786, AID2133]. In kind it is functional.
Test [9] addresses T3, Kappa-type opioid receptor. Type of test: functional. This is another data set of the same source.
The target of test [10] is Beta-galactosidase (Escherichia coli, UniProt Q8VNN2). In kind it is functional.
Beta-galactosidase, sequence (Q8VNN2 whole entry): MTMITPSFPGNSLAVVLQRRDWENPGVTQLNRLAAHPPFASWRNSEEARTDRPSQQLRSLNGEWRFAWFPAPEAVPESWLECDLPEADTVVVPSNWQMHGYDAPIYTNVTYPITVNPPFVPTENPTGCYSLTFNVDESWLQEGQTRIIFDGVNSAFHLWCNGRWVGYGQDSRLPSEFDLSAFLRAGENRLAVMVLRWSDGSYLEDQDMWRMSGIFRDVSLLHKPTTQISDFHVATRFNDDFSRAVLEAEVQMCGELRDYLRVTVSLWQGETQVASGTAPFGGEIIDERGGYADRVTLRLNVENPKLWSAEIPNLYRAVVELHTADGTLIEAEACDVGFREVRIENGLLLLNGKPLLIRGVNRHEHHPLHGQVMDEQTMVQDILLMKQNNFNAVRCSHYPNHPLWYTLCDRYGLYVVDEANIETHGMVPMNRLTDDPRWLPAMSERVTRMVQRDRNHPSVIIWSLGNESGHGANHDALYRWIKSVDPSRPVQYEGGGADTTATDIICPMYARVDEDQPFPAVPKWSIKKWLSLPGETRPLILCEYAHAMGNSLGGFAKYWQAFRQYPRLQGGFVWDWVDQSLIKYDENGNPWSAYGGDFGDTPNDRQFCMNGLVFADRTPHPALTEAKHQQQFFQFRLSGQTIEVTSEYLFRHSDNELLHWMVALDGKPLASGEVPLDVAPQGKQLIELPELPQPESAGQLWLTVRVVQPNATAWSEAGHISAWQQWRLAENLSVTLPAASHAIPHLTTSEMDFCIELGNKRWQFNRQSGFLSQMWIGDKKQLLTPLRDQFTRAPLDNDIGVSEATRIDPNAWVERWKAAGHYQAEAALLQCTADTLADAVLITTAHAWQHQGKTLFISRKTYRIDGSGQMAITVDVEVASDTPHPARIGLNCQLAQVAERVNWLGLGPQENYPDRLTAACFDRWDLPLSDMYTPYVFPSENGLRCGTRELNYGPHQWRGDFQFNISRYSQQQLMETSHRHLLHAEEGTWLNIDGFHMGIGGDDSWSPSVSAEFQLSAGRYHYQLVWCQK
Test [11] concerns the target T4, Alkaline phosphatase, tissue-nonspecific isozyme (Homo sapiens, UniProt P05186).
T4 sequence (P05186 whole entry): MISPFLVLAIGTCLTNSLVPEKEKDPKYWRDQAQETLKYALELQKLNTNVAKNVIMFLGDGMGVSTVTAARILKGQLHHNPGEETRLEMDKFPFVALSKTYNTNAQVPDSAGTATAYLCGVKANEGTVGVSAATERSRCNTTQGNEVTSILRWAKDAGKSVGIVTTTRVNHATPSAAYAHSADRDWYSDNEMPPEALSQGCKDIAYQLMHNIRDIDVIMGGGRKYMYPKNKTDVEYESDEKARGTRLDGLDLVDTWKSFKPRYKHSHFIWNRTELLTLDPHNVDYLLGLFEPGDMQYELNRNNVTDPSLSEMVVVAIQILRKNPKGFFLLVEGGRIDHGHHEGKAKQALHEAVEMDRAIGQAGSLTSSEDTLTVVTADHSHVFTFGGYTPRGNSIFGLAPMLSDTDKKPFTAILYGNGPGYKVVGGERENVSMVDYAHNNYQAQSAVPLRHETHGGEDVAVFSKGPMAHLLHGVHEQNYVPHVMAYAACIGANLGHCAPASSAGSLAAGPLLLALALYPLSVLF
Nature of the test: TNAP enzyme activators, dose response, selectivity assay for mouse IAP activator project, biochemical, TNAP isozyme, mouse IAP uHTS hits (AID 488880). Type of test: functional.

The target of test [12] is T5, Intestinal-type alkaline phosphatase (Mus musculus, UniProt P24822). The test can be described thus: mouse intestinal alkaline phosphatase activators, dose response, biochemical, luminescence, uHTS hits (AID 488783). Type of test: functional.
T5 sequence (P24822 whole entry): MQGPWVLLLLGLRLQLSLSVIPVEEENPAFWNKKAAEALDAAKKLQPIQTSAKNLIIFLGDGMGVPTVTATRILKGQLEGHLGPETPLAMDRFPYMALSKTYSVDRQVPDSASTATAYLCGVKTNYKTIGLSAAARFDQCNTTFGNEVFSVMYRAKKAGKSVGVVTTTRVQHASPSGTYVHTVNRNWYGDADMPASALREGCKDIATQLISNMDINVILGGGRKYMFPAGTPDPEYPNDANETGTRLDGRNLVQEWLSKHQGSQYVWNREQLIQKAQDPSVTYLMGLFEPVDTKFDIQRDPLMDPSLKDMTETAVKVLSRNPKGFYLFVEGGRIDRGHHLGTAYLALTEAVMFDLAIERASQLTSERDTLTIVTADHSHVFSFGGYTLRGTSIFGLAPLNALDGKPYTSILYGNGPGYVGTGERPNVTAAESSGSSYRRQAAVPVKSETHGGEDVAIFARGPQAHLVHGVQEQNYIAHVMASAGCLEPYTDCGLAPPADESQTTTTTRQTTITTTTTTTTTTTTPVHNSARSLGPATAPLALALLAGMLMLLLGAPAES
The target of test [13] is T6, Intestinal-type alkaline phosphatase (Homo sapiens, UniProt P09923). The test can be described thus: activation of human intestinal alkaline phosphatase – biochemical, dose response (AID 488873). Type of test: functional.
T6 sequence (P09923 whole entry): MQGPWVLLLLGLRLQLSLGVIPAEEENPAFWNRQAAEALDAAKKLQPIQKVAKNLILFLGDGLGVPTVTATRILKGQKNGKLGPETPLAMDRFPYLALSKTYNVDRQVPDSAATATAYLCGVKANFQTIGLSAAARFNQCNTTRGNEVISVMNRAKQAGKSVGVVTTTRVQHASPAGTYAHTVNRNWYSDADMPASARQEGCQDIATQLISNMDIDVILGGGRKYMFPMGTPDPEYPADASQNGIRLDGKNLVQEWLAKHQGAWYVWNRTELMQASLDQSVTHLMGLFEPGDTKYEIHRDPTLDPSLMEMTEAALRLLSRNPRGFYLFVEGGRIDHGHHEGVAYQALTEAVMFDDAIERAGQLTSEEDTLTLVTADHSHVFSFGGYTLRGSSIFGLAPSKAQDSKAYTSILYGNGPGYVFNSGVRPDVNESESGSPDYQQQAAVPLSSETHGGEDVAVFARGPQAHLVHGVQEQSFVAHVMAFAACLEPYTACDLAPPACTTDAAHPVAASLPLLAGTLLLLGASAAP
Test [14] deals with T7, Aminopeptidase N (Plasmodium falciparum FcB1/Columbia, UniProt O96935).
T7 sequence (O96935 whole entry): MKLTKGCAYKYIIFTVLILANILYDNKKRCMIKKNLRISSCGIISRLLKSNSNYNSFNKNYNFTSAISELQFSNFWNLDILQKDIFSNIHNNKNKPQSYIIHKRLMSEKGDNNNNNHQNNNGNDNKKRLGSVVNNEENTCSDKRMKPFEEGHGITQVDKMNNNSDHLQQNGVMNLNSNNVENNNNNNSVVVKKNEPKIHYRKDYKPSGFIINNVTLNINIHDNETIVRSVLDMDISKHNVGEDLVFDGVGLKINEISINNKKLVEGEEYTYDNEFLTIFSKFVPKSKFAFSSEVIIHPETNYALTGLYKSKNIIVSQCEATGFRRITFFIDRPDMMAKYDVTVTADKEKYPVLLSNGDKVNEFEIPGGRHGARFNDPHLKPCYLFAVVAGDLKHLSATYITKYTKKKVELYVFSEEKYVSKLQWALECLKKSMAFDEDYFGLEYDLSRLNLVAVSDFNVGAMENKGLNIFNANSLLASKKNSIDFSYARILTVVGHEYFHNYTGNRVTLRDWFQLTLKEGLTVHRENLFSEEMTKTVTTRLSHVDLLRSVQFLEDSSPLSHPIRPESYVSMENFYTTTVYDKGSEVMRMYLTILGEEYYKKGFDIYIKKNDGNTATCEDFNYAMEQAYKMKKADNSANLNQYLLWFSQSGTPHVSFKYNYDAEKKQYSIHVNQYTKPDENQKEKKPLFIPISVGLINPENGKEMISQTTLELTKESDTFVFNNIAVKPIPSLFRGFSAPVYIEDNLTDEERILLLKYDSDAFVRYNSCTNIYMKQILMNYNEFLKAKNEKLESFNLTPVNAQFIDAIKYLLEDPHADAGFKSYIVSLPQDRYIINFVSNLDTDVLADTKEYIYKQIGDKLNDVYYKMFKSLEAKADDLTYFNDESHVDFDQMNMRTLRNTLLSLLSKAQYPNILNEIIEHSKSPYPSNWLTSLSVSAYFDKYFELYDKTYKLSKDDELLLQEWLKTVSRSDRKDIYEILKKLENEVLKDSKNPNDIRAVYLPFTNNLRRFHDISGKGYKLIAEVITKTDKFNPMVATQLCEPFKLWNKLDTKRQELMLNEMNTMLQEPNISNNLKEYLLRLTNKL
The test can be described thus: P. falciparum M1AAP inhibitors, biochemical, fluorogenic H-Leu-NHMec substrate, 1536-well (AID 1445). Details: species or system Plasmodium falciparum 3D7, 3D7.

In test [15] the target is T5, Intestinal-type alkaline phosphatase. Nature of the test: PubChem AID 488785. In kind it is functional.
In test [16] the target is Procathepsin L (Homo sapiens, UniProt P07711). The test can be described thus: cathepsin L inhibitors, dose response, counter-screen for M1/M17 aminopeptidase inhibitor project, biochemical, QFRET, 1536-well (AID 2214). A general note: The purpose of a counterscreen is to sort out artefacts and off-target activity.
Procathepsin L, sequence (P07711 whole entry): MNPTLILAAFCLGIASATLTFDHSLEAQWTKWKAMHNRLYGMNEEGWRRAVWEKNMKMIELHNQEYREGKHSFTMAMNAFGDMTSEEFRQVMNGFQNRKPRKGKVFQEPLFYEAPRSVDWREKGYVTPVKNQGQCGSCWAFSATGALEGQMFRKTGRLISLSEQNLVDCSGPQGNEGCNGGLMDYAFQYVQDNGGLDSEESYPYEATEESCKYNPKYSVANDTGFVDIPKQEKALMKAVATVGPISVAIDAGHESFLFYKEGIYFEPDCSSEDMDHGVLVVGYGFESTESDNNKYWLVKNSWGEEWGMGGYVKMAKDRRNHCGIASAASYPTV
In test [17] the target is T6, Intestinal-type alkaline phosphatase. Nature of the test: inhibition of human intestinal alkaline phosphatase – biochemical, dose response (AID 488876). Type of test: functional.
Test [18] addresses T4, Alkaline phosphatase, tissue-nonspecific isozyme. Nature of the test: TNAP enzyme inhibition by screening hits, dose response, selectivity assay for mouse IAP inhibitor project, biochemical, human TNAP, uHTS hits (AID 488906). Type of test: functional.
Test [19] deals with T8, Aspartyl aminopeptidase (Plasmodium falciparum 3D7, UniProt Q8I2J3).
T8 sequence (Q8I2J3 whole entry): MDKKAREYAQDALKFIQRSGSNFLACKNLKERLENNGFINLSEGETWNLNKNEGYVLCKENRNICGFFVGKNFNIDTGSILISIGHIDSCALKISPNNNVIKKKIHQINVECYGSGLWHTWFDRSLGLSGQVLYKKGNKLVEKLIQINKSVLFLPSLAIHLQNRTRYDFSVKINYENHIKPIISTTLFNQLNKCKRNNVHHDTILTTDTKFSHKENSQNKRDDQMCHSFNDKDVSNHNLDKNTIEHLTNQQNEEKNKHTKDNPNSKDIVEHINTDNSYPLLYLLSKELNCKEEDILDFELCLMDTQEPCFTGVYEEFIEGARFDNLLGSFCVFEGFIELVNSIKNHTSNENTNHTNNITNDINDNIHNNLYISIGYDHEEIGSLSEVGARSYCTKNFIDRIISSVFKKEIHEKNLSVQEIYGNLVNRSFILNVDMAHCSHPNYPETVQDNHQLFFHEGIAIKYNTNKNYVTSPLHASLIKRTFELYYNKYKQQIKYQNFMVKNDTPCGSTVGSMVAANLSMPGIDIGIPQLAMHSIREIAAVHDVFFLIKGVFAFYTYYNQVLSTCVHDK
Nature of the test: Counterscreen for inhibitors of M1 and M17 aminopeptidases: QFRET-based biochemical high throughput dose response assay for inhibitors of the Plasmodium falciparum M18 Aspartyl Aminopeptidase (PFM18AAP). [Related PubChem assays: 1619 (Screening assay (M17LAP inhibitors).), 1445 (Screening assay (M1AAP inhibitors).)].

For test [20], the target named is Cannabinoid receptor 1 (Homo sapiens, UniProt P21554). Nature of the test: SAR analysis of antagonists of the Cannabinoid Receptor 1 using an Image-Based Assay. [Related pubchem assays (depositor defined):AID1961, AID1965]. Type of test: functional.
Cannabinoid receptor 1, sequence (P21554 whole entry): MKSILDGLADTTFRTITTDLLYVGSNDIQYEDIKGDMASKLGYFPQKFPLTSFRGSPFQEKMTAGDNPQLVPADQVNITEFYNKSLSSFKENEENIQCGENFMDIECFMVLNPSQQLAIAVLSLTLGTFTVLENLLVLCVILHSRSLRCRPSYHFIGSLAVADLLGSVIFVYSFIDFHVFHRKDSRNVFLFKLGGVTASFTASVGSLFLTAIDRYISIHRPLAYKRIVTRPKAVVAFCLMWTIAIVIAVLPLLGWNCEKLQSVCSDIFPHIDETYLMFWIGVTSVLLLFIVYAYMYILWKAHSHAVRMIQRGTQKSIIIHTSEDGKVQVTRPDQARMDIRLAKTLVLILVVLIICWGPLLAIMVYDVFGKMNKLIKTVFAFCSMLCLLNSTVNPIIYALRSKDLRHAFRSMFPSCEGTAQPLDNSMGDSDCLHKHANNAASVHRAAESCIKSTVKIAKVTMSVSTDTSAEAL
Test [21] deals with G-protein coupled receptor 55 (Homo sapiens, UniProt Q9Y2T6). The test can be described thus: SAR analysis of selective Agonists of GPR55 using an Image-Based Assay. [Related pubchem assays (depositor defined):AID1961, AID1965]. In kind it is functional.
G-protein coupled receptor 55, sequence (Q9Y2T6 whole entry): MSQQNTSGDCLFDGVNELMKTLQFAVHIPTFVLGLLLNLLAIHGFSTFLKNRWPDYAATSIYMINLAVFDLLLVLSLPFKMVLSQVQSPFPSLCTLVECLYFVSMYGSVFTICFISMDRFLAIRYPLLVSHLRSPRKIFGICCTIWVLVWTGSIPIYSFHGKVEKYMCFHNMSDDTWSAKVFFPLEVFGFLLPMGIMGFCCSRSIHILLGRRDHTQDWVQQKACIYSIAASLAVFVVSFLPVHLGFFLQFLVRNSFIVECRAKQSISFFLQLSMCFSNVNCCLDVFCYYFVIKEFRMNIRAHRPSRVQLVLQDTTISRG
Test [22] addresses T9, Cannabinoid receptor 2 (Homo sapiens, UniProt P34972). Nature of the test: SAR analysis of antagonists of the Cannabinoid Receptor 2 using an Image-Based Assay - Set 2. [Related pubchem assays (depositor defined):AID1961, AID1965]. Type of test: functional.
The target in test [23] is T9, Cannabinoid receptor 2. The test can be described thus: SAR analysis of agonists of the Cannabinoid Receptor 2 using an Image-Based Assay - Set 2. [Related pubchem assays (depositor defined):AID1961, AID1965]. Type of test: functional.

T9 sequence (P34972 whole entry): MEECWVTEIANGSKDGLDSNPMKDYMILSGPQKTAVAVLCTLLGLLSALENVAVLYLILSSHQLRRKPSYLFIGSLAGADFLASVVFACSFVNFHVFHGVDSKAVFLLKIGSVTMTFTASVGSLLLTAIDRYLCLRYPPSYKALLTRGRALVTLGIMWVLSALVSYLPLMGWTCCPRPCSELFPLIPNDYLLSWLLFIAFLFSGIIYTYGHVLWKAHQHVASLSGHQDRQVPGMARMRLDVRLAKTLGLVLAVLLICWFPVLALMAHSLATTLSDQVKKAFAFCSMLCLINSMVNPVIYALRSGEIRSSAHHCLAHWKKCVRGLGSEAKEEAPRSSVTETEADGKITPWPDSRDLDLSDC

With `CCOC(=O)c1c(-c2cccs2)csc1NC(=O)CCCC(=O)O`, in test [1], the IC50 was 20.3 µM (active). Moreover, the EC50 in test [2] is > 79.4 µM (not active); in test [3] it was 69.1 µM (inactive); in test [4], 39.6 µM (not active).

Consider `CCOc1ccccc1C(=O)NC1CC2CCCC(C1)N2Cc1ccc(C)cc1` (stereo not drawn), for which the IC50 in test [5] was > 32 µM (inactive); in test [6], 4.81 µM (active); in [9], 21.7 µM. Further, the EC50 is > 32 µM (inactive) in test [7], > 32 µM (inactive) in [8] and > 31.5 µM (inactive) in [10].

As to `Cc1ccc(NC(=O)CCNS(=O)(=O)c2ccc3[nH]c(=O)oc3c2)cc1F`, the EC50 in test [11] is > 100 µM (inactive); in test [12], 1.76 µM (active); in test [13], > 100 µM (inactive).

Turning to `O=C1Nc2ccccc2/C1=C1/SC(=S)N(NC(=O)c2ccccc2)C1=O`, the IC50 in test [14] is 11.2 µM (active); in test [15], 6.46 µM (active); in test [16], 38.3 µM (not active); in test [17] it was 3.09 µM (active); in test [18], > 100 µM (inactive); in test [19], > 73.5 µM (not active).

For `CCCN(CCC)Cc1c(C(=O)NN=C/C(C)=C\c2ccco2)nnn1-c1nonc1N`, the IC50 in [20] and in [22] was > 32 µM (inactive) in each case. The EC50 in test [21] was 0.597 µM (active); in [23], > 32 µM (inactive).

In general, IC50 refers to the concentration that gives 50% inhibition. The term EC50 denotes the concentration giving half of the maximal effect.
